# Experimental data taken from PubChem BioAssay (NCI).
#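 Results reflect a 48-hour exposure of cells in 96-well plates to compound at five concentrations. GI50 marks 50% less growth. TGI marks complete inhibition of growth.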
# Legend:
# Assay in all cases: NCI-60 cell line screen, 48 h
# COLO 205 colon = tested on: COLO 205 colon
# SK-OV-3 ovarian = tested on: SK-OV-3 ovarian
# A549 NSCLC = tested on: A549 NSCLC
# OVCAR-5 ovarian = tested on: OVCAR-5 ovarian
# SW-620 colon = tested on: SW-620 colon
# U251 CNS = tested on: U251 CNS
# EKVX NSCLC = tested on: EKVX NSCLC
# UACC-257 melanoma = tested on: UACC-257 melanoma
# HOP-62 NSCLC = tested on: HOP-62 NSCLC
# SNB-19 CNS = tested on: SNB-19 CNS
# ACHN renal = tested on: ACHN renal
# UO-31 renal = tested on: UO-31 renal
# TK-10 renal = tested on: TK-10 renal
# K-562 leukemia = tested on: K-562 leukemia
# SR leukemia = tested on: SR leukemia
# IGROV1 ovarian = tested on: IGROV1 ovarian
# LOX IMVI melanoma = tested on: LOX IMVI melanoma
# KM12 colon = tested on: KM12 colon
# SK-MEL-2 melanoma = tested on: SK-MEL-2 melanoma
# CAKI-1 renal = tested on: CAKI-1 renal
# RPMI-8226 leukemia = tested on: RPMI-8226 leukemia
# MDA-MB-435 = tested on: MDA-MB-435
# HS 578T breast = tested on: HS 578T breast
# M14 melanoma = tested on: M14 melanoma
# SN12C renal = tested on: SN12C renal
# T-47D breast = tested on: T-47D breast
# DU-145 prostate = tested on: DU-145 prostate
# NCI-H460 lung = tested on: NCI-H460 lung
# SF-268 CNS = tested on: SF-268 CNS
# 786-0 renal = tested on: 786-0 renal
# SF-539 CNS = tested on: SF-539 CNS
# NCI/ADR-RES ovarian = tested on: NCI/ADR-RES ovarian
# BT-549 breast = tested on: BT-549 breast
# SK-MEL-5 melanoma = tested on: SK-MEL-5 melanoma
# NCI-H522 lung = tested on: NCI-H522 lung
# NCI-H23 lung = tested on: NCI-H23 lung
# HOP-92 NSCLC = tested on: HOP-92 NSCLC
# PC-3 prostate = tested on: PC-3 prostate
# HL-60(TB) leukemia = tested on: HL-60(TB) leukemia
# HCT-15 colon = tested on: HCT-15 colon
# OVCAR-3 ovarian = tested on: OVCAR-3 ovarian
# UACC-62 melanoma = tested on: UACC-62 melanoma
# MCF7 breast = tested on: MCF7 breast
# SF-295 CNS = tested on: SF-295 CNS
# MDA-MB-231 breast = tested on: MDA-MB-231 breast
# HCT-116 colon = tested on: HCT-116 colon
# OVCAR-8 ovarian = tested on: OVCAR-8 ovarian
# NCI-H226 lung = tested on: NCI-H226 lung
# OVCAR-4 ovarian = tested on: OVCAR-4 ovarian
# SK-MEL-28 melanoma = tested on: SK-MEL-28 melanoma
# SNB-75 CNS = tested on: SNB-75 CNS
# A498 renal = tested on: A498 renal
# MALME-3M melanoma = tested on: MALME-3M melanoma
# MOLT-4 leukemia = tested on: MOLT-4 leukemia
# HT29 colon = tested on: HT29 colon
# HCC-2998 colon = tested on: HCC-2998 colon
# CCRF-CEM leukemia = tested on: CCRF-CEM leukemia
smiles,measurement,setting,value
CSC1C(=O)c2ccccc2/C(=N/Nc2nc3ccccc3s2)C1C (centres undefined),GI50,COLO 205 colon,9.63 µM
same,TGI,COLO 205 colon,21.1 µM
same,GI50,SK-OV-3 ovarian,35.2 µM
same,TGI,SK-OV-3 ovarian,> 50 µM
same,GI50,A549 NSCLC,16 µM
same,TGI,A549 NSCLC,44.4 µM
same,GI50,OVCAR-5 ovarian,14.5 µM
same,TGI,OVCAR-5 ovarian,29.6 µM
same,GI50,SW-620 colon,12.9 µM
same,TGI,SW-620 colon,34.1 µM
same,GI50,U251 CNS,7.66 µM
same,TGI,U251 CNS,15.6 µM
same,GI50,EKVX NSCLC,8.44 µM
same,TGI,EKVX NSCLC,18.4 µM
same,GI50,UACC-257 melanoma,8.87 µM
same,TGI,UACC-257 melanoma,18.9 µM
same,GI50,HOP-62 NSCLC,14.4 µM
same,TGI,HOP-62 NSCLC,> 50 µM
same,GI50,SNB-19 CNS,19.9 µM
same,TGI,SNB-19 CNS,> 50 µM
same,GI50,ACHN renal,5.65 µM
same,TGI,ACHN renal,11.7 µM
same,GI50,UO-31 renal,6.02 µM
same,TGI,UO-31 renal,13.8 µM
same,GI50,TK-10 renal,15.6 µM
same,TGI,TK-10 renal,42 µM
same,GI50,K-562 leukemia,1.7 µM
same,TGI,K-562 leukemia,4.55 µM
same,GI50,SR leukemia,0.843 µM
same,TGI,SR leukemia,2.52 µM
same,GI50,IGROV1 ovarian,0.648 µM
same,TGI,IGROV1 ovarian,4.22 µM
same,GI50,LOX IMVI melanoma,5.62 µM
same,TGI,LOX IMVI melanoma,11.6 µM
same,GI50,KM12 colon,18.7 µM
same,TGI,KM12 colon,> 50 µM
same,GI50,SK-MEL-2 melanoma,7.34 µM
same,TGI,SK-MEL-2 melanoma,18 µM
same,GI50,CAKI-1 renal,8.85 µM
same,TGI,CAKI-1 renal,20.1 µM
same,GI50,RPMI-8226 leukemia,7.44 µM
same,TGI,RPMI-8226 leukemia,> 50 µM
same,GI50,MDA-MB-435,9.38 µM
same,TGI,MDA-MB-435,19.8 µM
same,GI50,HS 578T breast,7.26 µM
same,TGI,HS 578T breast,27.9 µM
same,GI50,M14 melanoma,14.6 µM
same,TGI,M14 melanoma,33.1 µM
same,GI50,SN12C renal,7.26 µM
same,TGI,SN12C renal,14.2 µM
same,GI50,T-47D breast,8.65 µM
same,TGI,T-47D breast,> 50 µM
same,GI50,DU-145 prostate,9.59 µM
same,TGI,DU-145 prostate,18.3 µM
same,GI50,NCI-H460 lung,11 µM
same,TGI,NCI-H460 lung,25.7 µM
same,GI50,SF-268 CNS,7.96 µM
same,TGI,SF-268 CNS,19.1 µM
same,GI50,786-0 renal,10.1 µM
same,TGI,786-0 renal,19.7 µM
same,GI50,SF-539 CNS,12.5 µM
same,TGI,SF-539 CNS,21.8 µM
same,GI50,NCI/ADR-RES ovarian,9.94 µM
same,TGI,NCI/ADR-RES ovarian,25.5 µM
same,GI50,BT-549 breast,8.52 µM
same,TGI,BT-549 breast,19.6 µM
same,GI50,SK-MEL-5 melanoma,1.6 µM
same,TGI,SK-MEL-5 melanoma,9.78 µM
same,GI50,NCI-H522 lung,6.95 µM
same,TGI,NCI-H522 lung,26.3 µM
same,GI50,NCI-H23 lung,11.2 µM
same,TGI,NCI-H23 lung,28.3 µM
same,GI50,HOP-92 NSCLC,7.93 µM
same,TGI,HOP-92 NSCLC,25.2 µM
same,GI50,PC-3 prostate,9.28 µM
same,TGI,PC-3 prostate,27.2 µM
same,GI50,HL-60(TB) leukemia,2.14 µM
same,TGI,HL-60(TB) leukemia,43 µM
same,GI50,HCT-15 colon,7.58 µM
same,TGI,HCT-15 colon,15.8 µM
same,GI50,OVCAR-3 ovarian,7.98 µM
same,TGI,OVCAR-3 ovarian,17.6 µM
same,GI50,UACC-62 melanoma,8.67 µM
same,TGI,UACC-62 melanoma,16.5 µM
same,GI50,MCF7 breast,5.52 µM
same,TGI,MCF7 breast,34.7 µM
same,GI50,SF-295 CNS,19.7 µM
same,TGI,SF-295 CNS,> 50 µM
same,GI50,MDA-MB-231 breast,7.79 µM
same,TGI,MDA-MB-231 breast,15.8 µM
same,GI50,HCT-116 colon,4.67 µM
same,TGI,HCT-116 colon,28.8 µM
same,GI50,OVCAR-8 ovarian,10.7 µM
same,TGI,OVCAR-8 ovarian,28.6 µM
OCCNCCNc1c2ccccc2nc2oc3ccccc3c12,GI50,COLO 205 colon,3.51 µM
same,TGI,COLO 205 colon,16.4 µM
same,GI50,SK-OV-3 ovarian,13.1 µM
same,TGI,SK-OV-3 ovarian,40.3 µM
same,GI50,A549 NSCLC,10.3 µM
same,TGI,A549 NSCLC,35.7 µM
same,GI50,OVCAR-5 ovarian,24.2 µM
same,TGI,OVCAR-5 ovarian,71.6 µM
same,GI50,SW-620 colon,5.23 µM
same,TGI,SW-620 colon,24.4 µM
same,GI50,U251 CNS,12.5 µM
same,TGI,U251 CNS,30.2 µM
same,GI50,NCI-H226 lung,20.5 µM
same,TGI,NCI-H226 lung,62 µM
same,GI50,OVCAR-4 ovarian,10.2 µM
same,TGI,OVCAR-4 ovarian,34.6 µM
same,GI50,SK-MEL-28 melanoma,12.1 µM
same,TGI,SK-MEL-28 melanoma,26.5 µM
same,GI50,EKVX NSCLC,13 µM
same,TGI,EKVX NSCLC,46.1 µM
same,GI50,UACC-257 melanoma,15.6 µM
same,TGI,UACC-257 melanoma,33.2 µM
same,GI50,HOP-62 NSCLC,6.62 µM
same,TGI,HOP-62 NSCLC,20.2 µM
same,GI50,SNB-19 CNS,11.6 µM
same,TGI,SNB-19 CNS,36.2 µM
same,GI50,ACHN renal,5.82 µM
same,TGI,ACHN renal,32.7 µM
same,GI50,UO-31 renal,7.28 µM
same,TGI,UO-31 renal,34.4 µM
same,GI50,TK-10 renal,22.4 µM
same,TGI,TK-10 renal,86.8 µM
same,GI50,SNB-75 CNS,13.2 µM
same,TGI,SNB-75 CNS,27.1 µM
same,GI50,A498 renal,8.27 µM
same,TGI,A498 renal,21.9 µM
same,GI50,MALME-3M melanoma,11.4 µM
same,TGI,MALME-3M melanoma,41.8 µM
same,GI50,K-562 leukemia,33.9 µM
same,TGI,K-562 leukemia,> 100 µM
same,GI50,IGROV1 ovarian,7.3 µM
same,TGI,IGROV1 ovarian,38.3 µM
same,GI50,LOX IMVI melanoma,5.87 µM
same,TGI,LOX IMVI melanoma,20.6 µM
same,GI50,MOLT-4 leukemia,4.78 µM
same,TGI,MOLT-4 leukemia,> 100 µM
same,GI50,KM12 colon,8.31 µM
same,TGI,KM12 colon,> 100 µM
same,GI50,SK-MEL-2 melanoma,20.6 µM
same,TGI,SK-MEL-2 melanoma,43.9 µM
same,GI50,CAKI-1 renal,11.9 µM
same,TGI,CAKI-1 renal,56.4 µM
same,GI50,RPMI-8226 leukemia,4.76 µM
same,TGI,RPMI-8226 leukemia,21.6 µM
same,GI50,MDA-MB-435,11.5 µM
same,TGI,MDA-MB-435,29.3 µM
same,GI50,HS 578T breast,6.8 µM
same,TGI,HS 578T breast,24.1 µM
same,GI50,HT29 colon,4 µM
same,TGI,HT29 colon,21.5 µM
same,GI50,M14 melanoma,12 µM
same,TGI,M14 melanoma,24.5 µM
same,GI50,SN12C renal,8.86 µM
same,TGI,SN12C renal,57.7 µM
same,GI50,T-47D breast,11.7 µM
same,TGI,T-47D breast,38.4 µM
same,GI50,DU-145 prostate,10.1 µM
same,TGI,DU-145 prostate,23.5 µM
same,GI50,NCI-H460 lung,4.44 µM
same,TGI,NCI-H460 lung,17.5 µM
same,GI50,SF-268 CNS,7.33 µM
same,TGI,SF-268 CNS,28.3 µM
same,GI50,786-0 renal,7.44 µM
same,TGI,786-0 renal,22.2 µM
same,GI50,SF-539 CNS,8.04 µM
same,TGI,SF-539 CNS,21 µM
same,GI50,NCI/ADR-RES ovarian,14.5 µM
same,TGI,NCI/ADR-RES ovarian,79.1 µM
same,GI50,BT-549 breast,13.3 µM
same,TGI,BT-549 breast,28.2 µM
same,GI50,SK-MEL-5 melanoma,8.97 µM
same,TGI,SK-MEL-5 melanoma,21.1 µM
same,GI50,NCI-H522 lung,7.73 µM
same,TGI,NCI-H522 lung,23.7 µM
same,GI50,HOP-92 NSCLC,6.15 µM
same,TGI,HOP-92 NSCLC,25.7 µM
same,GI50,PC-3 prostate,9.73 µM
same,TGI,PC-3 prostate,34.7 µM
same,GI50,HL-60(TB) leukemia,12.4 µM
same,TGI,HL-60(TB) leukemia,50.5 µM
same,GI50,HCT-15 colon,7.57 µM
same,TGI,HCT-15 colon,53.1 µM
same,GI50,OVCAR-3 ovarian,12.5 µM
same,TGI,OVCAR-3 ovarian,42.8 µM
same,GI50,UACC-62 melanoma,14.1 µM
same,TGI,UACC-62 melanoma,31.5 µM
same,GI50,HCC-2998 colon,4.91 µM
same,TGI,HCC-2998 colon,20.9 µM
same,GI50,CCRF-CEM leukemia,8.97 µM
same,TGI,CCRF-CEM leukemia,41.9 µM
same,GI50,MCF7 breast,6.01 µM
same,TGI,MCF7 breast,29.2 µM
same,GI50,SF-295 CNS,6.02 µM
same,TGI,SF-295 CNS,29.6 µM
same,GI50,MDA-MB-231 breast,10.3 µM
same,TGI,MDA-MB-231 breast,37.5 µM
same,GI50,HCT-116 colon,4.61 µM
same,TGI,HCT-116 colon,16.2 µM
same,GI50,OVCAR-8 ovarian,9.46 µM
same,TGI,OVCAR-8 ovarian,> 100 µM
